Measurements taken from ChEMBL document CHEMBL3826978, “Design, synthesis and biological evaluation of novel chiral oxazino-indoles as potential and selective neuroprotective agents against Aβ25-35-induced neuronal damage” (Bioorg Med Chem Lett, 2016).
Active and inactive are the calls of the source. The rule behind the calls is not given here.

Assays:
SH-SY5Y [1] = assay: Neuroprotective activity against H2O2-induced neurotoxicity in human SH-SY5Y cells; assay type: functional, cell-based
SH-SY5Y [2] = assay: Neuroprotective activity against amyloid beta(25 to 35)-induced neurotoxicity in human SH-SY5Y cells assessed as cell viability at 10 uM (reference value: 62.1 +/- 2.2%); assay type: functional; conditions: for viability at 10 µM: read-out: Activity
SH-SY5Y [3] = assay: Neuroprotective activity against oxygen glucose deprivation-induced neurotoxicity in human SH-SY5Y cells; assay type: functional, cell-based
SH-SY5Y [4] = assay: Neuroprotective activity against amyloid beta(25 to 35)-induced neurotoxicity in human SH-SY5Y cells assessed as cell viability at 10 uM by SRB assay; assay type: functional, cell-based
SH-SY5Y [5] = assay: Cytotoxicity against human SH-SY5Y cells assessed as cell viability by MTT assay; assay type: cell-based
SH-SY5Y [6] = assay: Cytotoxicity against human SH-SY5Y cells assessed as cell proliferation by SRB assay; assay type: cell-based

SMILES	Activity (SH-SY5Y [1])	Activity (SH-SY5Y [2])	Activity (SH-SY5Y [3])	Activity (SH-SY5Y [4])	viability at 10 µM (SH-SY5Y [2]) [%]	Activity (SH-SY5Y [5])	Activity (SH-SY5Y [6])
COc1cc([C@H]2O[C@@H](C)Cn3c2c(C)c2ccccc23)cc(OC)c1OC	inactive	inactive	inactive	–	–	–	–
Cc1cccc([C@@H]2O[C@@H](C)Cn3c2c(C)c2ccccc23)c1	inactive	inactive	inactive	–	–	–	–
COc1cccc([C@H]2O[C@@H](C)Cn3c2c(C)c2ccccc23)c1	inactive	inactive	inactive	–	–	–	–
Cc1c2n(c3ccccc13)C[C@H](C)O[C@H]2c1cccs1	inactive	inactive	inactive	–	–	–	–
Cc1c2n(c3ccccc13)C[C@H](C)O[C@@H]2c1coc2ccccc2c1=O	inactive	inactive	inactive	–	–	–	–
Cc1c2n(c3ccccc13)C[C@@H](C)O[C@@H]2c1ccccc1	inactive	inactive	inactive	–	–	–	–
Cc1c2n(c3ccccc13)C[C@H](C)O[C@H]2c1ccc(CC(C)C)cc1	inactive	–	inactive	Active	96.2	Non-toxic	Non-toxic
CCc1ccc([C@@H]2O[C@@H](C)Cn3c2c(C)c2ccccc23)cc1	inactive	inactive	inactive	–	–	–	–
Cc1c2n(c3ccccc13)C[C@@H](C)O[C@H]2c1ccc(F)cc1	inactive	–	inactive	Active	90.6	Non-toxic	Non-toxic
Cc1cccc([C@H]2O[C@@H](C)Cn3c2c(C)c2ccccc23)c1	inactive	inactive	inactive	–	–	–	–
Cc1c2n(c3ccccc13)C[C@H](C)O[C@H]2c1ccc(C(C)(C)C)cc1	inactive	–	inactive	Active	92.1	Non-toxic	Non-toxic
Cc1ccccc1[C@H]1O[C@@H](C)Cn2c1c(C)c1ccccc12	inactive	inactive	inactive	–	–	–	–
Cc1ccc([C@@H]2O[C@@H](C)Cn3c2c(C)c2ccccc23)cc1	inactive	inactive	inactive	–	–	–	–
Cc1ccccc1[C@@H]1O[C@@H](C)Cn2c1c(C)c1ccccc12	inactive	inactive	inactive	–	–	–	–
COc1ccccc1[C@@H]1O[C@@H](C)Cn2c1c(C)c1ccccc12	inactive	–	inactive	–	77.7	–	–
Cc1c2n(c3ccccc13)C[C@H](C)O[C@@H]2c1ccc(C(C)(C)C)cc1	inactive	–	inactive	–	84.5	–	–
CCc1ccc([C@H]2O[C@@H](C)Cn3c2c(C)c2ccccc23)cc1	inactive	–	inactive	Active	93	Non-toxic	Non-toxic
Cc1c2n(c3ccccc13)C[C@@H](C)O[C@H]2c1ccccc1	inactive	inactive	inactive	–	–	–	–

SMILES	Activity (SH-SY5Y [1])	Activity (SH-SY5Y [2])	Activity (SH-SY5Y [3])	Activity (SH-SY5Y [4])	viability at 10 µM (SH-SY5Y [2]) [%]	Activity (SH-SY5Y [5])	Activity (SH-SY5Y [6])
Cc1c2n(c3ccccc13)C[C@@H](C)O[C@@H]2c1ccc(F)cc1	inactive	inactive	inactive	–	–	–	–
Cc1ccc([C@H]2O[C@@H](C)Cn3c2c(C)c2ccccc23)cc1	inactive	inactive	inactive	–	–	–	–
Cc1c2n(c3ccccc13)C[C@H](C)O[C@@H]2c1ccc(F)cc1	inactive	inactive	inactive	–	–	–	–
O=C(O[C@@H]1Cc2c(O)cc(O)cc2O[C@@H]1c1cc(O)c(O)c(O)c1)c1cc(O)c(O)c(O)c1 [EPIGALOCATECHIN GALLATE]	–	–	–	–	98.6	–	–
COc1ccccc1[C@H]1O[C@@H](C)Cn2c1c(C)c1ccccc12	inactive	inactive	inactive	–	–	–	–
Cc1c2n(c3ccccc13)C[C@H](C)O[C@H]2c1ccc(Cl)cc1	inactive	inactive	inactive	–	–	–	–
Cc1c2n(c3ccccc13)C[C@H](C)O[C@H]2c1ccc(F)cc1	inactive	inactive	inactive	–	–	–	–
COc1cccc([C@@H]2O[C@@H](C)Cn3c2c(C)c2ccccc23)c1	inactive	inactive	inactive	–	–	–	–
Cc1cc(C)cc([C@H]2O[C@@H](C)Cn3c2c(C)c2ccccc23)c1	inactive	inactive	inactive	–	–	–	–
COc1cc([C@@H]2O[C@@H](C)Cn3c2c(C)c2ccccc23)cc(OC)c1OC	inactive	inactive	inactive	–	–	–	–
Cc1c2n(c3ccccc13)C[C@H](C)O[C@H]2c1ccccc1	inactive	inactive	inactive	–	–	–	–
Cc1c2n(c3ccccc13)C[C@H](C)O[C@@H]2c1ccc(C(F)(F)F)cc1	inactive	inactive	inactive	–	–	–	–
Cc1cc(C)cc([C@@H]2O[C@@H](C)Cn3c2c(C)c2ccccc23)c1	inactive	–	inactive	–	87.1	–	–
Cc1c2n(c3ccccc13)C[C@H](C)O[C@H]2c1ccc(C(F)(F)F)cc1	inactive	inactive	inactive	–	–	–	–
Cc1c2n(c3ccccc13)C[C@H](C)O[C@@H]2c1ccc(Cl)cc1	inactive	–	inactive	–	74.4	–	–
Cc1c2n(c3ccccc13)C[C@H](C)O[C@@H]2c1ccc(CC(C)C)cc1	inactive	–	inactive	Active	108	Non-toxic	Non-toxic
Cc1c2n(c3ccccc13)C[C@H](C)O[C@@H]2c1ccccc1	inactive	inactive	inactive	–	–	–	–
Cc1c2n(c3ccccc13)C[C@H](C)O[C@@H]2c1cccs1	inactive	inactive	inactive	–	–	–	–
